Data reported in ChEMBL document CHEMBL1140554, “2-Aryl-3,3,3-trifluoro-2-hydroxypropionic acids: a new class of protein tyrosine phosphatase 1B inhibitors” (Bioorg Med Chem Lett, 2007).
The source made the active and inactive calls. The calls are words filed in the database; no cut-off is given here.

Tests used:
[1] = molecular target: T1, Tyrosine-protein phosphatase non-receptor type 1 (Homo sapiens, UniProt P18031); experiment: Inhibition of PTP1B expressed in Sf9 cells
T1 sequence (P18031 whole entry): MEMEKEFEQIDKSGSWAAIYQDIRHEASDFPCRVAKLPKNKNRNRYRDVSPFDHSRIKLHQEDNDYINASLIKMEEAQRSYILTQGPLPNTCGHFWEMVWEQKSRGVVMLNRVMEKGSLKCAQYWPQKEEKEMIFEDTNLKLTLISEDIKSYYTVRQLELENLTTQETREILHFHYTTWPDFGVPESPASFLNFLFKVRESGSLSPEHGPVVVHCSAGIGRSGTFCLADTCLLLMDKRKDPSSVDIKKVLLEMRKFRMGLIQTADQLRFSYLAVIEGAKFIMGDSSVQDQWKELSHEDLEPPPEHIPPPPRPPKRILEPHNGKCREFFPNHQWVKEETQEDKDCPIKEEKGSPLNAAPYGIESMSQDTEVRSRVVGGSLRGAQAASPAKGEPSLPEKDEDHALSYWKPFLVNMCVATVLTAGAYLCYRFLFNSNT

[2] = molecular target: T1, Tyrosine-protein phosphatase non-receptor type 1; experiment: Inhibition of PTP1B in a cell-free assay
[3] = molecular target: T2, Tyrosine-protein phosphatase non-receptor type 1 (Homo sapiens) (UniProt P18031); experiment: Inhibition of PTP1B expressed in Sf9 cells at 400 uM
T2 sequence (whole entry): T1 sequence (P18031 whole entry)

Structure (SMILES) | IC50 [1] [µM] | IC50 [2] [µM] | Activity [3]
Cc1nc(-c2ccc(Cl)cc2)sc1CCOc1ccc2c(c1)c(C(O)(C(=O)O)C(F)(F)F)cn2Cc1ccccc1 (stereo not given) | 27 | – | –
Cc1nc(-c2ccc(Cl)cc2)sc1CCOc1cc(C(O)(C(=O)O)C(F)(F)F)ccc1OCc1ccc(F)cc1 (stereo not given) | 23 | – | –
Cc1nc(-c2ccc(Cl)cc2)sc1CCOc1cc(C(O)(C(=O)O)C(F)(F)F)ccc1OCc1ccccc1 (stereo not given) | 3.2 | 3 | –
CCCCCOc1ccc(C(O)(C(=O)O)C(F)(F)F)cc1OCCc1sc(-c2ccc(Cl)cc2)nc1C (stereo not given) | 12 | – | –
O=C(c1ccccc1)C(c1ccccc1)c1ccc(C(F)(F)P(=O)(O)O)cc1 (stereo not given) | 1.2 | – | –
Cc1nc(-c2ccc(Cl)cc2)sc1CCOc1cccc(C(O)(C(=O)O)C(F)(F)F)c1 (stereo not given) | 37 | – | –
COc1ccc(COc2ccc(C(O)(C(=O)O)C(F)(F)F)cc2OCCc2sc(-c3ccc(Cl)cc3)nc2C)cc1 (stereo not given) | 12 | – | –
Cc1nc(-c2ccc(Cl)cc2)sc1CCOc1cc(C(O)(C(=O)O)C(F)(F)F)ccc1OCc1ccncc1 (stereo not given) | 36 | – | –
Cc1nc(-c2ccc(Cl)cc2)sc1CCOc1cc(C(O)(C(=O)O)C(F)(F)F)ccc1OCC(=O)O (stereo not given) | 500 | – | –
Cc1nc(-c2ccc(Cl)cc2)sc1CCOc1cc(C(O)(C(=O)O)C(F)(F)F)ccc1OCCc1ccccc1 (stereo not given) | 10 | – | –
Cc1nc(-c2ccc(Cl)cc2)sc1CCOc1cc(C(O)(C(=O)O)C(F)(F)F)ccc1O (stereo not given) | 105 | – | –
COC(=O)c1c(O)cccc1OC/C=C/c1ccc(F)c(-c2cc(C(=O)O)no2)c1 | 110 | – | –
COCn1cc(C(O)(C(=O)O)C(F)(F)F)c2ccccc21 (stereo not given) | – | – | inactive

The remaining lines, values ahead:

IC50 [1] [µM] | IC50 [2] [µM] | Activity [3] | Structure (SMILES)
59 | – | – | COCn1cc(C(O)(C(=O)O)C(F)(F)F)c2cc(OCCc3sc(-c4ccc(Cl)cc4)nc3C)ccc21 (stereo not given)
176 | – | – | COCn1cc(C(O)(C(=O)O)C(F)(F)F)c2cccc(OCc3ccccc3)c21 (stereo not given)
32 | – | – | Cc1nc(-c2ccc(Cl)cc2)sc1CCOc1ccc2c(c1)c(C(O)(C(=O)O)C(F)(F)F)cn2COCC[Si](C)(C)C (stereo not given)
123 | – | – | COC(=O)c1c(O)cccc1OCCOc1ccc2c(c1)c(C(O)(C(=O)O)C(F)(F)F)cn2COCC[Si](C)(C)C (stereo not given)
382 | – | – | COCn1cc(C(O)(C(=O)O)C(F)(F)F)c2ccc(OCc3ccccc3)cc21 (stereo not given)
– | – | inactive | COCn1cc(C(O)(C(=O)O)C(F)(F)F)c2cc(OCc3ccccc3)ccc21 (stereo not given)
